# According to patent publication US8952150B2, “Prostaglandin transporter inhibitors and uses thereof” (Albert Einstein College of Medicine of Yeshiva University, priority 2009, dated 2015):
# pIC50: −log10 of the molar value.
# Target: rat PGT (Rattus norvegicus (Rat), UniProt Q00910)
# Assay: [3H]PGE2 uptake inhibition in MDCK cells stably transfected with rat PGT (percent inhibition and IC50)
# Type: cell-based
# Conditions: for Inh (% of Ctl) 1 μM: 1 μM compound; for Inh (% of Ctl) 5 μM: 5 μM compound; for Inh (% of Ctl) 0.5 μM: 0.5 μM compound; for Inh (% of Ctl) 2.5 μM: 2.5 μM compound; for Inh (% of Ctl) 0.1 μM: 0.1 μM compound; for pIC50: [3H]PGE2 uptake, MDCK cells stably transfected with rat PGT
# In short: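 Rat PGT-transfected MDCK cells, on day 4 after seeding, took up [3H]PGE2 in Waymouth buffer at room temperature, with compound (EtOH stock diluted in buffer) added immediately before tracer. Intracellular radioactivity counted after lysis; percent inhibition versus vehicle, IC50 by fitting y=m1−m1*(m0/(m2+m0)).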
Compound,Inh (% of Ctl) 1 μM (inhibition of [3H]PGE2 uptake),Inh (% of Ctl) 5 μM (inhibition of [3H]PGE2 uptake),"Inh (% of Ctl) 10 μM (10 μM compound, inhibition of [3H]PGE2 uptake)",Inh (% of Ctl) 0.5 μM (inhibition of [3H]PGE2 uptake),Inh (% of Ctl) 2.5 μM (inhibition of [3H]PGE2 uptake),Inh (% of Ctl) 0.1 μM (inhibition of [3H]PGE2 uptake),pIC50
O=C(CCCCCCNc1nc(Nc2ccccc2)nc(Nc2ccc(O)cc2)n1)NCc1ccccc1 [compound 97],13.1 % of Ctl,19.4 % of Ctl,30.8 % of Ctl,–,–,–,–
O=C(NCCOCCNc1nc(Nc2ccc(O)cc2)nc(Nc2ccc(C(=O)NCc3ccc(Cl)cc3)cc2)n1)c1ccccc1 [compound 98],–,75.1 % of Ctl,–,6.7 % of Ctl,24.9 % of Ctl,–,–
O=C(NCCOCCOCCNc1nc(Nc2ccc(O)cc2)nc(Nc2ccc(C(=O)NCc3ccc(F)cc3)cc2)n1)c1ccccc1 [compound 99],–,89.4 % of Ctl,–,61.8 % of Ctl,77.1 % of Ctl,81.3 % of Ctl,7.63
O=C(NCCOCCOCCNc1nc(Nc2ccc(O)cc2)nc(Nc2ccc(C(=O)NCc3ccc(Cl)cc3Cl)cc2)n1)c1ccccc1 [compound 100],–,86.0 % of Ctl,–,56.4 % of Ctl,57.6 % of Ctl,41.1 % of Ctl,–
O=C(NCCOCCOCCNc1nc(Nc2ccc(O)cc2)nc(Nc2ccc(C(=O)NCc3cccc(C(F)(F)F)c3)cc2)n1)c1ccccc1 [compound 101],–,91.4 % of Ctl,–,54.0 % of Ctl,71.0 % of Ctl,47.4 % of Ctl,–
Cc1ccc(CNC(=O)c2ccc(Nc3nc(NCCOCCOCCNC(=O)c4ccccc4)nc(Nc4ccc(O)cc4)n3)cc2)cc1 [compound 102],–,88.0 % of Ctl,–,41.9 % of Ctl,65.7 % of Ctl,–,–
O=C(NCCOCCOCCNc1nc(Nc2ccc(O)cc2)nc(Nc2ccc(C(=O)Nc3ccccc3)cc2)n1)c1ccccc1 [compound 103],–,83.7 % of Ctl,–,38.3 % of Ctl,62.2 % of Ctl,–,–
O=C(NCCOCCOCCNc1nc(Nc2ccc(O)cc2)nc(Nc2ccc(C(=O)NCc3ccc(Cl)c(Cl)c3)cc2)n1)c1ccccc1 [compound 104],–,91.6 % of Ctl,–,61.6 % of Ctl,87.8 % of Ctl,46.6 % of Ctl,–
O=C(NCCOCCOCCNc1nc(Nc2ccc(O)cc2)nc(Nc2ccc(C(=O)NCc3cccc(F)c3)cc2)n1)c1ccccc1 [compound 105],–,92.45 % of Ctl,–,64.6 % of Ctl,81 % of Ctl,67.9 % of Ctl,7.32
O=C(NCCOCCOCCNc1nc(Nc2ccc(O)cc2)nc(Nc2ccc(C(=O)NCc3ccccc3Cl)cc2)n1)c1ccccc1 [compound 106],–,93.1 % of Ctl,–,64.8 % of Ctl,68.8 % of Ctl,68.4 % of Ctl,–
Cc1cccc(CNC(=O)c2ccc(Nc3nc(NCCOCCOCCNC(=O)c4ccccc4)nc(Nc4ccc(O)cc4)n3)cc2)c1 [compound 107],–,91.3 % of Ctl,–,56.3 % of Ctl,80.7 % of Ctl,65.2 % of Ctl,–
O=C(NCCOCCOCCNc1nc(Nc2ccc(O)cc2)nc(Nc2ccc(C(=O)NCc3cc(Cl)cc(Cl)c3)cc2)n1)c1ccccc1 [compound 108],–,76.6 % of Ctl,–,60.8 % of Ctl,78.3 % of Ctl,70.3 % of Ctl,–
O=C(NCCOCCOCCNc1nc(Nc2ccc(O)cc2)nc(Nc2ccc(C(=O)NCc3ccc(Br)cc3)cc2)n1)c1ccccc1 [compound 109],–,85.1 % of Ctl,–,55.6 % of Ctl,59.8 % of Ctl,49.5 % of Ctl,–
O=C(NCCOCCOCCNc1nc(Nc2ccc(O)cc2)nc(Nc2ccc(C(=O)NCc3ccccc3F)cc2)n1)c1ccccc1 [compound 110],–,93.6 % of Ctl,–,60.6 % of Ctl,78.3 % of Ctl,69.6 % of Ctl,7.50
O=C(NCCOCCOCCNc1nc(Nc2ccc(O)cc2)nc(Nc2ccc(C(=O)NCCc3ccccc3)cc2)n1)c1ccccc1 [compound 111],–,93.2 % of Ctl,–,59.1 % of Ctl,81.5 % of Ctl,52.2 % of Ctl,–
O=C(O)c1ccc(CNC(=O)c2ccc(Nc3nc(NCCOCCOCCNC(=O)c4ccccc4)nc(Nc4ccc(O)cc4)n3)cc2)cc1 [compound 112],–,49.4 % of Ctl,–,17.5 % of Ctl,32.2 % of Ctl,–,–

Compound,Inh (% of Ctl) 1 μM (inhibition of [3H]PGE2 uptake),Inh (% of Ctl) 5 μM (inhibition of [3H]PGE2 uptake),"Inh (% of Ctl) 10 μM (10 μM compound, inhibition of [3H]PGE2 uptake)",Inh (% of Ctl) 0.5 μM (inhibition of [3H]PGE2 uptake),Inh (% of Ctl) 2.5 μM (inhibition of [3H]PGE2 uptake),Inh (% of Ctl) 0.1 μM (inhibition of [3H]PGE2 uptake),pIC50
O=C(NCCOCCOCCNc1nc(Nc2ccc(O)cc2)nc(Nc2ccc(C(=O)NCc3ccc(C(F)(F)F)cc3)cc2)n1)c1ccccc1 [compound 113],–,92.4 % of Ctl,–,49.2 % of Ctl,84.1 % of Ctl,36.8 % of Ctl,–
COC(=O)c1ccc(CNC(=O)c2ccc(Nc3nc(NCCOCCOCCNC(=O)c4ccccc4)nc(Nc4ccc(O)cc4)n3)cc2)cc1 [compound 114],–,–,–,61.4 % of Ctl,–,41.0 % of Ctl,–
O=C(NCCOCCOCCNc1nc(Nc2ccc(O)cc2)nc(Nc2ccc(C(=O)NCC3CCCCC3)cc2)n1)c1ccccc1 [compound 115],–,–,–,76.8 % of Ctl,–,54.4 % of Ctl,–
O=C(NCCOCCOCCNc1nc(Nc2ccccc2)nc(Nc2ccc(C(=O)NCc3ccccc3)cc2)n1)c1ccccc1 [compound 116],–,–,–,59.4 % of Ctl,–,36.4 % of Ctl,–
COC(=O)c1ccc(CNc2nc(NCCOCCOCCNC(=O)c3ccccc3)nc(Nc3ccc(C(=O)NCc4ccccc4)cc3)n2)cc1 [compound 117],–,–,–,36.7 % of Ctl,–,8.1 % of Ctl,–
O=C(NCCOCCNc1nc(Nc2ccc(O)cc2)nc(Nc2ccc(C(=O)NCc3ccccc3)cc2)n1)c1ccccc1 [compound 118],–,–,–,90.7 % of Ctl,–,74.2 % of Ctl,7.68
CCCCCCNC(=O)c1ccc(Nc2nc(NCCOCCNC(=O)c3ccccc3)nc(Nc3ccc(O)cc3)n2)cc1 [compound 119],–,–,–,81.4 % of Ctl,–,57.2 % of Ctl,–
CCCCCCNc1nc(Nc2ccc(O)cc2)nc(Nc2ccc(C(=O)NCc3ccccc3)cc2)n1 [compound 120],–,–,–,29.1 % of Ctl,–,11.2 % of Ctl,–
O=C(O)c1ccc(CNc2nc(NCCOCCOCCNC(=O)c3ccccc3)nc(Nc3ccc(C(=O)NCc4ccccc4)cc3)n2)cc1 [compound 121],–,–,–,28.8 % of Ctl,–,1.0 % of Ctl,–
COC(=O)Cc1ccc(Nc2nc(NCCOCCOCCNC(=O)c3ccccc3)nc(Nc3ccc(C(=O)NCc4ccccc4)cc3)n2)cc1 [compound 122],–,–,–,38.1 % of Ctl,–,5.8 % of Ctl,–
CN(c1ccc(O)cc1)c1nc(NCCOCCOCCNC(=O)c2ccccc2)nc(Nc2ccc(C(=O)NCc3ccccc3)cc2)n1 [compound 123],–,–,–,36.6 % of Ctl,–,12.0 % of Ctl,–
CN(c1ccc(C(=O)NCc2ccccc2)cc1)c1nc(NCCOCCOCCNC(=O)c2ccccc2)nc(Nc2ccc(O)cc2)n1 [compound 124],–,–,–,85.4 % of Ctl,–,68.8 % of Ctl,7.47
O=C(O)Cc1ccc(Nc2nc(NCCOCCOCCNC(=O)c3ccccc3)nc(Nc3ccc(C(=O)NCc4ccccc4)cc3)n2)cc1 [compound 125],–,–,–,24.3 % of Ctl,–,3.2 % of Ctl,–
O=C(NCCOCCOCCNc1nc(Nc2ccc(O)cc2)nc(Nc2ccc(C(=O)NCc3cccc(F)c3F)cc2)n1)c1ccccc1 [compound 126],70.0 % of Ctl,–,–,56.3 % of Ctl,–,24.0 % of Ctl,–
O=C(NCCOCCOCCNc1nc(Nc2ccc(O)cc2)nc(Nc2ccc(C(=O)NCc3cc(F)ccc3F)cc2)n1)c1ccccc1 [compound 127],70.2 % of Ctl,–,–,52.3 % of Ctl,–,17.0 % of Ctl,–
